Earlier results, collected in article PMC8042970, “A phase 1 study of dalpiciclib, a cyclin-dependent kinase 4/6 inhibitor in Chinese patients with advanced breast cancer” (Biomarker Research, 2021).
pIC50: −log10 of the molar value. Where two headings read alike, the source gives them in different places. One block for each compound: values may come before it.

Assays:
[1] = system: CDK4; conditions: ref product label or FDA review
[2] = parameters: method as in product label or FDA review; conditions: ref product label or FDA review
[3] = parameters: method as in product label or FDA review; conditions: ref product label or FDA review; remark: listed apart in the source
[4] = parameters: method as in product label or FDA review; conditions: ref product label or FDA review; remark: listed apart in the source
[5] = system: CDK6; conditions: ref product label or FDA review
[6] = system: HR-positive and HER2-negative metastatic breast cancer
[7] = single agent palbociclib, moderately pretreated population
[8] = phase 1 dose-escalation study of palbociclib
[9] = single agent abemaciclib, heavily pretreated population

pIC50 [1]: […] | Metabolism [2]: Liver (CYP3A4) | Cmin,ss ([3]; at recommended dose): 0.631 µg/mL | Mild hepatic/renal impairment [3]: No effect on exposure | Tmax [3]: 1−4 h | Volume of distribution [3]: 1090 L | Excretion, Feces [4]: 69% | Excretion, Urine [4]: 23% | DLT: increased creatinine (phase 1 study of ribociclib): 1 | DLT: mucositis (phase 1 study of ribociclib): 1 | DLT: neutropenia (phase 1 study of ribociclib): 3 cases | DLT: pulmonary embolism (phase 1 study of ribociclib): 1 | DLT: thrombocytopenia (phase 1 study of ribociclib): 2 cases | Patients with DLTs (phase 1 study of ribociclib, first treatment cycle): 13%
Structure (SMILES): CN(C)C(=O)c1cc2cnc(Nc3ccc(N4CCNCC4)cn3)nc2n1C1CCCC1 [ribociclib]
DLT: QTcF prolongation (phase 1 study of ribociclib): 1 | Patients with QTcF prolongation (ribociclib): 6–9%

Structure (SMILES): CC(=O)c1c(C)c2cnc(Nc3ccc(N4CCNCC4)cn3)nc2n(C2CCCC2)c1=O [palbociclib]
pIC50 [1]: […] | pIC50 [5]: 7.82 | AUCss ([3]; at recommended dose): […] | Tmax [3]: […] | Volume of distribution [3]: 2583 L | t1/2 [3]: […] | DCR [6, 7]: 63.8% | Median PFS [6, 7]: 6.5 months | MTD and recommended phase 2 dose [8]: […] | Patients with DLT [8]: […] | Patients with QTc value of > 500 ms (phase 1 trial of palbociclib): none | Patients with maximum increase from baseline QTc of < 30 ms (phase 1 trial of palbociclib): 26 of 41

pIC50 [1]: […] | pIC50 [5]: 8.00 | Metabolism [2]: Liver (CYP3A4) | Excretion, Feces [4]: 81% | Excretion, Urine [4]: 3%
Structure (SMILES): CCN1CCN(Cc2ccc(Nc3ncc(F)c(-c4cc(F)c5nc(C)n(C(C)C)c5c4)n3)nc2)CC1 [abemaciclib]
DCR [6, 9]: 66.7% | Median PFS [6, 9]: 5.9 months
